Values quoted from earlier work in US8394592B2, “Methods for assessing cancer susceptibility to carcinogens in tobacco products” (The Board of Regents of the University of Texas System, priority 2006, dated 2013).

Tested on: Swiss mice
Conditions: micronucleus test in Swiss mice; cited from earlier work

## CN(CCCC(=O)c1cccnc1)N=O [NNK, 4-(methylnitrosamino)-1-(3-pyridyl)-1-butanone]
  mutagenicity: potent mutagen
